Where a name gives a salt, the structure may show the parent alone.

As a reminder, the melting point is the temperature of the solid-liquid transition. `COc1cc(C2c3cc4c(cc3[C@@H](NC(=O)CNCCCCNCCCCNCCCCN)[C@H]3COC(=O)C23)OCO4)cc(OC)c1O` (some centres unmarked) (as salt: hydrochloride) came in with a melting point of 263 °C.

`COc1cc(C2c3cc4c(cc3[C@@H](NC(=O)CNCCCCNCCCN)[C@H]3COC(=O)C23)OCO4)cc(OC)c1O` (some centres unmarked) (as salt: hydrochloride) came in with a melting point of 197 °C.

The values above are taken from patent publication US8664409B2, “Process for the preparation of (poly) aminoalkylaminoacetamide derivatives of epipodophyllotoxin useful for their applications in therapeutics as anticancer agent” (Pierre Fabre Medicament, priority 2007, dated 2014).
